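Cells were grown in 96-well plates and exposed to each compound for 48 hours at five concentrations; endpoints were interpolated linearly between bracketing concentrations, or set to the highest concentration if not reached. TGI denotes the concentration required for complete inhibition of growth.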
Legend:
Assay in all cases: NCI tumour cell line growth inhibition, 48 h
SK-OV-3 ovarian = tested on: SK-OV-3 ovarian
SN12C renal = tested on: SN12C renal
HCC-2998 colon = tested on: HCC-2998 colon
OVCAR-3 ovarian = tested on: OVCAR-3 ovarian
U251 CNS = tested on: U251 CNS
NCI-H226 lung = tested on: NCI-H226 lung
K-562 leukemia = tested on: K-562 leukemia
LOX IMVI melanoma = tested on: LOX IMVI melanoma
MDA-MB-435 = tested on: MDA-MB-435
TK-10 renal = tested on: TK-10 renal
NCI-H460 lung = tested on: NCI-H460 lung
SR leukemia = tested on: SR leukemia
SF-295 CNS = tested on: SF-295 CNS
HL-60(TB) leukemia = tested on: HL-60(TB) leukemia
OVCAR-8 ovarian = tested on: OVCAR-8 ovarian
786-0 renal = tested on: 786-0 renal
CAKI-1 renal = tested on: CAKI-1 renal
IGROV1 ovarian = tested on: IGROV1 ovarian
UACC-62 melanoma = tested on: UACC-62 melanoma
MALME-3M melanoma = tested on: MALME-3M melanoma
A549 NSCLC = tested on: A549 NSCLC
HT29 colon = tested on: HT29 colon
CCRF-CEM leukemia = tested on: CCRF-CEM leukemia
RPMI-8226 leukemia = tested on: RPMI-8226 leukemia
SNB-75 CNS = tested on: SNB-75 CNS
NCI/ADR-RES ovarian = tested on: NCI/ADR-RES ovarian
NCI-H23 lung = tested on: NCI-H23 lung
SF-539 CNS = tested on: SF-539 CNS
ACHN renal = tested on: ACHN renal
HOP-62 NSCLC = tested on: HOP-62 NSCLC
HS 578T breast = tested on: HS 578T breast
NCI-H522 lung = tested on: NCI-H522 lung
T-47D breast = tested on: T-47D breast
MDA-N = tested on: MDA-N
PC-3 prostate = tested on: PC-3 prostate
SNB-19 CNS = tested on: SNB-19 CNS
MCF7 breast = tested on: MCF7 breast
DU-145 prostate = tested on: DU-145 prostate
EKVX NSCLC = tested on: EKVX NSCLC
KM12 colon = tested on: KM12 colon
BT-549 breast = tested on: BT-549 breast
COLO 205 colon = tested on: COLO 205 colon
SW-620 colon = tested on: SW-620 colon
HCT-116 colon = tested on: HCT-116 colon
SK-MEL-2 melanoma = tested on: SK-MEL-2 melanoma
OVCAR-5 ovarian = tested on: OVCAR-5 ovarian
UO-31 renal = tested on: UO-31 renal
SK-MEL-5 melanoma = tested on: SK-MEL-5 melanoma
MOLT-4 leukemia = tested on: MOLT-4 leukemia
HCT-15 colon = tested on: HCT-15 colon
M14 melanoma = tested on: M14 melanoma
A498 renal = tested on: A498 renal
SF-268 CNS = tested on: SF-268 CNS
UACC-257 melanoma = tested on: UACC-257 melanoma
MDA-MB-231 breast = tested on: MDA-MB-231 breast
OVCAR-4 ovarian = tested on: OVCAR-4 ovarian

Measured: TGI

NC(=O)c1nnc2c(F)cccc2c1N
> 100 µM: all assays above
